According to ChEMBL document CHEMBL4330185, “Computer-Assisted Discovery and Structural Optimization of a Novel Retinoid X Receptor Agonist Chemotype” (ACS Med Chem Lett, 2019):
≈ marks a conversion by molar mass, not a printed value. Calls of active or inactive are those of the source. The calls are words filed in the database; no cut-off is given here.

What was measured:
[1] = target: T1, Retinoic acid receptor RXR-alpha (Homo sapiens) (UniProt P19793); assay: Agonist activity at human Gal4-DBD fused RXRalpha LBD expressed in HEK293T cells at 30 uM after 12 to 14 hrs by luciferase reporter gene assay; type: cell-based
T1 sequence (whole entry): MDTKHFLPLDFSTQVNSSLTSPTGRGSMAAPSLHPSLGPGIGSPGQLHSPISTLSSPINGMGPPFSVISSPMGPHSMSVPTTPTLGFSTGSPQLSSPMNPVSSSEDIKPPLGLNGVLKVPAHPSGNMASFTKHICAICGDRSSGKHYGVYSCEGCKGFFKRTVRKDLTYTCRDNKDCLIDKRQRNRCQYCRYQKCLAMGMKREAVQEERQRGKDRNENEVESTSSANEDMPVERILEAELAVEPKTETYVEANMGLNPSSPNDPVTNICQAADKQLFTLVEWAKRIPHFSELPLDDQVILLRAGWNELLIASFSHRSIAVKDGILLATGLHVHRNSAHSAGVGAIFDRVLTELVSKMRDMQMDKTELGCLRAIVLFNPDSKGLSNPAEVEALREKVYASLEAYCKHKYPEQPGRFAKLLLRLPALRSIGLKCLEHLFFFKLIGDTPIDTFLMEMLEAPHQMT

[2] = target: T2, Retinoic acid receptor RXR-beta (Homo sapiens) (UniProt P28702); assay: Agonist activity at human Gal4-DBD fused RXRbeta LBD expressed in HEK293T cells at 30 uM after 12 to 14 hrs by luciferase reporter gene assay; type: cell-based
T2 sequence (whole entry): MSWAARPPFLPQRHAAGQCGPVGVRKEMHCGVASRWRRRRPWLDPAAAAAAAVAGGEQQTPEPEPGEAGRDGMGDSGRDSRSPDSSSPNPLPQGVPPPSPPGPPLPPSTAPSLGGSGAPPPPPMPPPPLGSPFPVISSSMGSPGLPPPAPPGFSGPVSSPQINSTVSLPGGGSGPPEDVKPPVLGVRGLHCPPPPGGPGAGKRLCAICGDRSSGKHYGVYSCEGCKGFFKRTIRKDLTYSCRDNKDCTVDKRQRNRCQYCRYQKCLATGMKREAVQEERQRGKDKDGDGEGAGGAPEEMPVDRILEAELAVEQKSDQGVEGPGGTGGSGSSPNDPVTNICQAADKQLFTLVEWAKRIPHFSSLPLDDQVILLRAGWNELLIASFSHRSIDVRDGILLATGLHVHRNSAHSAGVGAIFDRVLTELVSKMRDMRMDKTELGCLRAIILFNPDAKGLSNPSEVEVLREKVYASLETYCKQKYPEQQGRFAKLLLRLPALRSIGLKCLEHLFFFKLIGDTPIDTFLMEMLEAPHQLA

[3] = target: T3, Retinoic acid receptor RXR-gamma (Homo sapiens) (UniProt P48443); assay: Agonist activity at human Gal4-DBD fused RXRgamma LBD expressed in HEK293T cells at 30 uM after 12 to 14 hrs by luciferase reporter gene assay; type: cell-based
T3 sequence (whole entry): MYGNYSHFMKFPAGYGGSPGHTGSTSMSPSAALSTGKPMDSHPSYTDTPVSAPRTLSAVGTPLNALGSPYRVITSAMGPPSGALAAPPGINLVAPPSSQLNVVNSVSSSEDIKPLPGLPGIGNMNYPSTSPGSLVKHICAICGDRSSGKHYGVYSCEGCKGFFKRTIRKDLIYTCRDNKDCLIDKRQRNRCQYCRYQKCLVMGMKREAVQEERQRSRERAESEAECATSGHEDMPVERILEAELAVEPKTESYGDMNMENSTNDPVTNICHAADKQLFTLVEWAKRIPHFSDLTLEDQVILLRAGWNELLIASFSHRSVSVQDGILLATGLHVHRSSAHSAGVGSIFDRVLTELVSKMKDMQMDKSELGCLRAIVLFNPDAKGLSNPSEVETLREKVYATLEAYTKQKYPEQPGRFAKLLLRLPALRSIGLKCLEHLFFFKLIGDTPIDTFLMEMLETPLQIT

[4] = target: T2, Retinoic acid receptor RXR-beta (Homo sapiens); assay: Agonist activity at human Gal4-DBD fused RXRbeta LBD expressed in HEK293T cells after 12 to 14 hrs by luciferase reporter gene assay relative to bexarotene; type: cell-based
[5] = target: T4, Retinoic acid receptor RXR-alpha (Homo sapiens, UniProt P19793); assay: Agonist activity at human Gal4-DBD fused RXRalpha LBD expressed in HEK293T cells after 12 to 14 hrs by luciferase reporter gene assay; type: cell-based; settings: read-out: EC50
T4 sequence (P19793 whole entry): T1 sequence (whole entry)

[6] = target: T1, Retinoic acid receptor RXR-alpha (Homo sapiens); assay: Agonist activity at human Gal4-DBD fused RXRalpha LBD expressed in HEK293T cells at 10 uM after 12 to 14 hrs by luciferase reporter gene assay; type: cell-based
[7] = target: T5, Retinoic acid receptor RXR-gamma (Homo sapiens, UniProt P48443); assay: Agonist activity at human Gal4-DBD fused RXRgamma LBD expressed in HEK293T cells after 12 to 14 hrs by luciferase reporter gene assay; type: cell-based; settings: read-out: EC50
T5 sequence (P48443 whole entry): T3 sequence (whole entry)

[8] = target: T1, Retinoic acid receptor RXR-alpha (Homo sapiens); assay: Agonist activity at human Gal4-DBD fused RXRalpha LBD expressed in HEK293T cells after 12 to 14 hrs by luciferase reporter gene assay relative to bexarotene; type: cell-based
[9] = target: T6, Retinoic acid receptor gamma (Homo sapiens) (UniProt P13631); assay: Agonist activity at human Gal4-DBD fused RARgamma LBD expressed in HEK293T cells at 30 uM after 12 to 14 hrs by luciferase reporter gene assay; type: cell-based
T6 sequence (whole entry): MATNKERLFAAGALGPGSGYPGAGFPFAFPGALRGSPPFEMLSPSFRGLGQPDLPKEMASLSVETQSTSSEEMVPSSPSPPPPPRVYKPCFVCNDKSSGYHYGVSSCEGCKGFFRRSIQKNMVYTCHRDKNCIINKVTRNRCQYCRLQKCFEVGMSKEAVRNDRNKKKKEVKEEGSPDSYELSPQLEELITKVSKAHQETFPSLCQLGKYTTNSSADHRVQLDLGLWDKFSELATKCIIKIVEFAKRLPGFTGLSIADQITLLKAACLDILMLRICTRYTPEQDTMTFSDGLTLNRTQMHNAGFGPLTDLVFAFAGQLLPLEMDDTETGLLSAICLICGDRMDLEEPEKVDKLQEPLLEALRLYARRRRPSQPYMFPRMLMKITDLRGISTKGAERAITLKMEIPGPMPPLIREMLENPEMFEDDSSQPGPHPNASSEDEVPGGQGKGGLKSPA

[10] = target: T3, Retinoic acid receptor RXR-gamma (Homo sapiens); assay: Agonist activity at human Gal4-DBD fused RXRgamma LBD expressed in HEK293T cells after 12 to 14 hrs by luciferase reporter gene assay relative to bexarotene; type: cell-based
[11] = target: T7, Retinoic acid receptor beta (Homo sapiens) (UniProt P10826); assay: Agonist activity at human Gal4-DBD fused RARbeta LBD expressed in HEK293T cells at 30 uM after 12 to 14 hrs by luciferase reporter gene assay; type: cell-based
T7 sequence (whole entry): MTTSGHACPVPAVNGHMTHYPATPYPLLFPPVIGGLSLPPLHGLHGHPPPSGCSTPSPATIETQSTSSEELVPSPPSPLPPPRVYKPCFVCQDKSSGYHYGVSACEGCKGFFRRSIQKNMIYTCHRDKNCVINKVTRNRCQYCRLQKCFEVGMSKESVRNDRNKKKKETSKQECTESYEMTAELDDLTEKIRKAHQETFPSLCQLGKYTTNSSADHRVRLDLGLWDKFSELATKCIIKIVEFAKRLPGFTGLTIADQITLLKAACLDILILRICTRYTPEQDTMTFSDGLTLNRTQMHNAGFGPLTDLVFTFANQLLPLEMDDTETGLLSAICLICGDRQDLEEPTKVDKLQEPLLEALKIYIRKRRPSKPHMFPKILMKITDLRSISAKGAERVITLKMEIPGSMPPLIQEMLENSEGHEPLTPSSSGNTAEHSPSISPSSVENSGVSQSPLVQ

[12] = target: T8, Retinoic acid receptor alpha (Homo sapiens) (UniProt P10276); assay: Agonist activity at human Gal4-DBD fused RARalpha LBD expressed in HEK293T cells at 30 uM after 12 to 14 hrs by luciferase reporter gene assay; type: cell-based
T8 sequence (whole entry): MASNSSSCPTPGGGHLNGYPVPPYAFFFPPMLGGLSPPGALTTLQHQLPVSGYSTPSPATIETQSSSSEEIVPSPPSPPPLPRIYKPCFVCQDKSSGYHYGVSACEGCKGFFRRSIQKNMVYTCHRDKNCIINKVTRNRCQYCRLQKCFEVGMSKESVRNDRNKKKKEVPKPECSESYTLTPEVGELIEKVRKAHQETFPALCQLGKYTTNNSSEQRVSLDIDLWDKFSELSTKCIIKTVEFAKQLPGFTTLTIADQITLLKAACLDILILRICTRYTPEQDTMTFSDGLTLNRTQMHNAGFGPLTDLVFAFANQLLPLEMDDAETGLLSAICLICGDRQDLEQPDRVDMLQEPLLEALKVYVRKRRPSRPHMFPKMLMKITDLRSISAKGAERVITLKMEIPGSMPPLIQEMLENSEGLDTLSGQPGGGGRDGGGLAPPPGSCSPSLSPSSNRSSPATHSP

[13] = target: T9, Retinoic acid receptor RXR-beta (Homo sapiens, UniProt P28702); assay: Agonist activity at human Gal4-DBD fused RXRbeta LBD expressed in HEK293T cells after 12 to 14 hrs by luciferase reporter gene assay; type: cell-based; settings: read-out: EC50
T9 sequence (P28702 whole entry): T2 sequence (whole entry)

HepG2 = assay: Cytotoxicity against human HepG2 cells up to 100 uM after 48 hrs by WST1 assay; type: cell-based; settings: hepg2, 48 h
Homo sapiens [14] = species on record: Homo sapiens; assay: Agonist activity at full length human RXR-LXR expressed in HEK293T cells co-expressing ABCA1-pGL3 at 1 uM after 12 to 14 hrs by luciferase reporter gene assay; type: cell-based
[15] = target: T10, Retinoid X receptor (Homo sapiens) (UniProt P28702+P48443+P19793); assay: Agonist activity at RXR in human HepG2 cells assessed as induction of APOE mRNA expression at 1 to 10 uM after 8 hrs by RT-PCR analysis; type: cell-based
[16] = Agonist activity at full length human PPARgamma-RXR expressed in HEK293T cells co-expressing PPRE1-pGL3 after 12 to 14 hrs by luciferase reporter gene assay; type: cell-based; settings: HEK-293T
[17] = Aqueous solubility of the compound after 24 hrs by HPLC analysis; type: physicochemical; settings: water
[18] = target: T10, Retinoid X receptor (Homo sapiens); assay: Agonist activity at RXR in human HepG2 cells assessed as induction of ANGPTL4 mRNA expression at 1 to 10 uM after 8 hrs by RT-PCR analysis; type: cell-based
Homo sapiens [19] = species on record: Homo sapiens; assay: Synergistic agonist activity at full length human RXR-LXR expressed in HEK293T cells co-expressing ABCA1-pGL3 at 1 uM after 12 to 14 hrs in presence of T090 by luciferase reporter gene assay; type: cell-based
[20] = target: T10, Retinoid X receptor (Homo sapiens); assay: Agonist activity at RXR in human HepG2 cells assessed as induction of ADIPOQ mRNA expression at 1 to 10 uM after 8 hrs by RT-PCR analysis; type: cell-based
[21] = target: T4, Retinoic acid receptor RXR-alpha; assay: Binding affinity to human RXRalpha LBD by ITC
[22] = Synergistic agonist activity at full length human PPARgamma-RXR expressed in HEK293T cells co-expressing PPRE1-pGL3 after 12 to 14 hrs in presence of rosiglitazone by luciferase reporter gene assay; type: cell-based; settings: HEK-293T
[23] = Lipophilicity, log P of the compound by HPLC analysis; type: physicochemical; settings: read-out: logP
[24] = target: Luciferin 4-monooxygenase (Photinus pyralis) (UniProt P08659); assay: Inhibition of firefly luciferase activity in HEK293T cells co-expressing human Gal4-DBD fused RXRbeta LBD after 12 to 14 hrs by luminescence assay; type: cell-based
[25] = target: Luciferin 4-monooxygenase (Photinus pyralis) (UniProt P08659); assay: Inhibition of firefly luciferase activity in HEK293T cells co-expressing human Gal4-DBD fused RXRalpha LBD after 12 to 14 hrs by luminescence assay; type: cell-based
[26] = target: Luciferin 4-monooxygenase (Photinus pyralis) (UniProt P08659); assay: Inhibition of firefly luciferase activity in HEK293T cells co-expressing human Gal4-DBD fused RXRgamma LBD after 12 to 14 hrs by luminescence assay; type: cell-based

Chain of Luciferin 4-monooxygenase (Photinus pyralis) (P08659 whole entry, the tested form may be a part): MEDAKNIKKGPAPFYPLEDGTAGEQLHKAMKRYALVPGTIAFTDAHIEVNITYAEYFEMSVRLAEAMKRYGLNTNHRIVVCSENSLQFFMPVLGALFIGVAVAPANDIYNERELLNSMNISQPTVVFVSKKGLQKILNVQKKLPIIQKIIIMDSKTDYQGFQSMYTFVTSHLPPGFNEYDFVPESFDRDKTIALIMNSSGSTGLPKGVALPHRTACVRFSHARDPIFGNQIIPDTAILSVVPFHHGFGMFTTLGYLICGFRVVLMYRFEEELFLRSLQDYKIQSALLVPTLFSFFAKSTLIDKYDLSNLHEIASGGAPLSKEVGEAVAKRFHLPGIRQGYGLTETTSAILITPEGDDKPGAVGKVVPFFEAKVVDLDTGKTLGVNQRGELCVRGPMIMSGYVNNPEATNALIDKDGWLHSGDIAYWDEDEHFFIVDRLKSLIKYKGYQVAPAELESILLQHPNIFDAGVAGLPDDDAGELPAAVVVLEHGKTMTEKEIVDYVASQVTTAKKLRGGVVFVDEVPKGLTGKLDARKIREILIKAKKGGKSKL

Structure (SMILES): O=C(O)c1ccc(C(=O)Nc2ccc3c(c2)CCC3)cc1
- Activity [1]: inactive
- Activity [2]: inactive
- Activity [3]: inactive

Structure (SMILES): O=C(O)c1ccc(COc2ccc3c(c2)CCC3)cc1
- Emax [4]: 28%
- EC50 [5]: 6700 nM
- Activity [6]: Active
- EC50 [7]: 17000 nM
- Emax [8]: 29%
- Activity [9]: Active
- Emax [10]: 5%
- Activity [11]: Active
- Activity [12]: Active
- EC50 [13]: 8800 nM
- Activity (HepG2): Non-Toxic

Structure (SMILES): O=C(O)c1ccc(COc2ccccc2-c2ccccc2)cc1
- Emax [4]: 44%
- Activity (Homo sapiens [14]): Active
- EC50 [5]: 280 nM
- EC50 [7]: 1600 nM
- Activity [15]: Active
- Emax [8]: 70%
- EC50 [16]: 1000 nM
- solubility at 24 h [17]: 1.31 µg/mL (≈ 4.3 µM)
- Activity [18]: Active
- Emax [10]: 94%
- Activity (Homo sapiens [19]): Active
- Activity [20]: Active
- EC50 [13]: 310 nM
- Kd [21]: 95 nM
- EC50 [22]: 470 nM
- logP [23]: 2.03
- Activity (HepG2): Non-Toxic

Structure (SMILES): O=C(O)c1cccc(COc2ccc3c(c2)CCC3)c1
- inhibition [24]: Active
- inhibition [25]: Active
- inhibition [26]: Active
